Measurements published in patent US8007991B2, “Three-dimensional physiological matrices for oncological testing, and methods for their production and use” (priority 2006, dated 2011).

Test system: Patient Sample GS-640, kidney tissue (renal cell carcinoma)
Assay: Tumor fragment growth and invasion (cell migration) in three-dimensional gel matrix, 48-well plate chemotherapy screening
Assay type: cell-based, human
Details: 5 days treatment; for number of cells that have grown and invaded away from the solid tumor fragment / distance of cell migration away from the solid tumor fragment: 37 degrees Celsius; for number of cells that have grown and invaded away from the solid tumor fragment: 5% CO2, photomicrograph compared with untreated control (FIG. 5); for response to the drug (overall): renal cell carcinoma patient sample; for distance of cell migration away from the solid tumor fragment: 5% CO2, photomicrograph
From the text: FIGS. 1-8 are photographic and photomicrographic images which show, by way of example, use of the means and methods of the present invention with respect to a tissue sample removed from a patient. With respect to FIGS. 1-8, Patient Sample GS-640, comprising kidney tissue, was removed from the patient by a surgeon during surgery.
Tissue analysis and screening in accordance with the invention were requested by the surgeon, and proper consent was obtained from the patient prior to surgical removal of a sample quantity of tissue from the RHS Kidney. The patient was diagnosed with renal cell carcinoma. A tissue sample of approximately 1 gram in quantity was removed from the patient during surgery, and was placed into a 25 ml sample jar, and immersed in sterile saline. The tumor tissue was kept at 4 degrees centigrade until processed for the screening of therapeutic compounds in accordance with the means and methods of the invention. All procedures were performed under sterile conditions in a bio-safety laminar flow hood.
FIG. 1 is a photographic image showing the mechanical division of the sample into portions to be tested. The sample has been prepared by dissecting away any non viable tissue and blood prior to mincing into 1-2 mm pieces using sterile disposable scalpels.
FIG. 2 is a photographic image showing tumor sample portions which have been placed into each well of a 48 well plate, and been submersed in a gel matrix mixture according to the invention. After insertion of the portions, the mixture was allowed to form into a gel at room temperature for approximately 30 minutes. Once the gel formed around the fully immersed tumor fragments, nutrient rich media was added as a liquid overlay that permeated the entire gel and tumor fragment.
Each different chemotherapy and or dose of chemotherapy was added to a set of 6 wells out of the 48-well plate. A total of 7 different chemotherapies were assessed in this plate. One set of six wells were not treated with drug and thus acted as ‘control conditions’ for tumor fragment growth and invasion. Each of the eight vertical lanes containing six separate wells was marked with a symbol for each chemotherapy/dose used and noted correspondingly on data collection sheets. […] The plates were then placed in a conventional 37 degree Celsius incubator at 5% CO2.
This image is thus representative of all wells at Day 0 with or without chemotherapeutics. Images were made with a 400× magnification phase contrast micrograph using ZEISS camera specs.
Noteworthy is the halo of cells and increased cell density as compared with the results shown at Day 3 of the test. The lines on the images have been drawn to show the distance measurements within which approximately 95% of the migrating cells have migrated away from the margins of the tissue sample.

SMILES	number of cells that have grown and invaded away from the solid tumor fragment	response to the drug (overall)	distance of cell migration away from the solid tumor fragment
N.N.[Cl][Pt][Cl] [Cisplatin]	identical in appearance and cell numbers to the control sample	failed chemotherapy	
CC(=O)O[C@@]12CO[C@@H]1C[C@H](O)[C@@]1(C)C(=O)[C@H](O)C3=C(C)[C@@H](OC(=O)[C@H](O)[C@@H](NC(=O)OC(C)(C)C)c4ccccc4)C[C@@](O)([C@@H](OC(=O)c4ccccc4)[C@H]21)C3(C)C [Docetaxol, Docetaxel]	fewer number of invading cells than the control	moderate response	longer migratory distance than treatment with Taxol
CC(=O)O[C@H]1C(=O)[C@@]2(C)[C@H]([C@H](OC(=O)c3ccccc3)[C@]3(O)C[C@H](OC(=O)[C@H](O)[C@@H](NC(=O)c4ccccc4)c4ccccc4)C(C)=C1C3(C)C)[C@]1(OC(C)=O)CO[C@@H]1C[C@@H]2O [Taxol, Paclitaxel]	a drop in both the distance and the number of cells		a drop in both the distance and the number of cells
